# In ChEMBL document CHEMBL1153384, “Synthesis, antimalarial activity, and preclinical pharmacology of a novel series of 4'-fluoro and 4'-chloro analogues of amodiaquine. Identification of a suitable "back-up" compound for N-tert-butyl isoquine” (J Med Chem, 2009):
# What was measured:
# [1] = Toxicity in po dosed mouse assessed as drug level causing no observed adverse effects administered as single dose; type: organism-based; conditions: in vivo, read-out: Activity
# Mus musculus [2] = assay: Toxicity in po dosed mouse assessed as induction of hepatotoxicity at drug dose above no observed adverse effects level; type: organism-based; conditions: in vivo
# [3] = Toxicity against Wistar rat hepatocytes after 6 hrs by trypan blue exclusion method; type: cell-based, Hepatocyte; conditions: read-out: TC50
# [4] = Toxicity in po dosed mouse assessed as drug level causing no observed adverse effects administered as once daily for 4 days; type: organism-based; conditions: in vivo, read-out: Activity
# Heme [5] = assay: Binding affinity to heme assessed as binding constant for stepwise binding of 2 equivalent of drug to 1 molecule of heme in presence of 40% DMSO by UV-visible spectroscopy
# Plasmodium falciparum [6] = assay: Antimalarial activity against chloroquine-sensitive Plasmodium falciparum HB3; type: functional, organism-based
# Heme [7] = assay: Binding affinity to heme assessed as binding constant for stepwise binding of 2 molecules of heme to 1 equivalent of drug in presence of 40% DMSO by UV-visible spectroscopy
# Plasmodium falciparum [8] = assay: Antimalarial activity against chloroquine-resistant Plasmodium falciparum V1/S; type: functional, organism-based; conditions: V1S
# [9] = Distribution coefficient, log D at pH 7.4; conditions: octanol/water
# [10] = (§1) Partition coefficient, log P of the compound; type: physicochemical; conditions: octanol/water
# Cytochrome P450 3A4 [11] = target: T1, Cytochrome P450 3A4 (Homo sapiens, UniProt P08684); assay: Inhibition of human CYP3A4 using DEF substrate; type: ADME
# Mus musculus [12] = assay: Toxicity in po dosed mouse assessed as maximal nonlethal dose administered as single dose; type: organism-based; conditions: in vivo
# Plasmodium falciparum [13] = assay: Antimalarial activity against chloroquine-resistant Plasmodium falciparum J164; type: functional, organism-based
# Plasmodium falciparum [14] = assay: Antimalarial activity against chloroquine-resistant Plasmodium falciparum TM6; type: functional, organism-based
# Plasmodium yoelii [15] = assay: In vivo antimalarial activity against Plasmodium yoelii NS peroral dosage; type: functional; conditions: po
# Mus musculus [16] = assay: Toxicity in po dosed mouse assessed as induction of hematological toxicity at drug dose above no observed adverse effects level; type: organism-based; conditions: in vivo
# Cytochrome P450 3A4 [17] = target: T1, Cytochrome P450 3A4; assay: Inhibition of human CYP3A4 using PPR substrate; type: ADME
# Plasmodium falciparum [18] = assay: Antimalarial activity against chloroquine-sensitive Plasmodium falciparum 3D7; type: functional, organism-based
# Plasmodium falciparum [19] = assay: Antimalarial activity against […] Plasmodium falciparum Dd2; type: functional, organism-based
# Plasmodium falciparum [20] = assay: Antimalarial activity against […] Plasmodium falciparum PH3; type: functional, organism-based
# Plasmodium falciparum [21] = assay: Antimalarial activity against chloroquine-resistant Plasmodium falciparum TM4; type: functional, organism-based
# Plasmodium falciparum [22] = assay: Antimalarial activity against chloroquine-resistant Plasmodium falciparum K1
# Heme [23] = tested on: Heme
# Heme [24] = tested on: Heme; remark: listed apart in the source
# [25] = Drug metabolism in cannulated Wistar rat assessed as biliary excretion of [3H]labeled drug level at 54 umol/kg, iv after 5 hrs; type: ADME, organism-based, Bile; conditions: in vivo
# [26] = Biodistribution in cannulated Wistar rat bile assessed as [3H]labeled drug level at 54 umol/kg, iv after 5 hrs; type: ADME, organism-based; conditions: in vivo
# Plasmodium berghei = assay: Antimalarial activity as reduced parasitaemia against Plasmodium berghei ANKA infected CD1 mice (Mus musculus) perorally dosed daily over 4 days; type: functional; conditions: po, 96 h
# Liver [27] = assay: Biodistribution in Wistar rat liver assessed as [3H]labeled drug level at 54 umol/kg, iv after 24 hrs; type: ADME, organism-based; conditions: in vivo
# [28] = as §1; type: physicochemical; conditions: octanol/water; remark: listed apart in the source
# Kidney [29] = assay: Biodistribution in cannulated Wistar rat kidney assessed as [3H]labeled drug level at 54 umol/kg, iv after 5 hrs; type: ADME, organism-based; conditions: in vivo
# Liver [30] = assay: Biodistribution in cannulated Wistar rat liver assessed as [3H]labeled drug level at 54 umol/kg, iv after 5 hrs; type: ADME, organism-based; conditions: in vivo
# Rattus norvegicus [31] = assay: Drug elimination in Wistar rat assessed as [3H]labeled drug level at 54 umol/kg, iv after 24 hrs; type: ADME, organism-based; conditions: in vivo
# Lung = assay: Biodistribution in Wistar rat lung assessed as [3H]labeled drug level at 54 umol/kg, iv after 24 hrs; type: ADME, organism-based; conditions: in vivo
# Kidney [32] = assay: Biodistribution in Wistar rat kidney assessed as [3H]labeled drug level at 54 umol/kg, iv after 24 hrs; type: ADME, organism-based; conditions: in vivo
# [33] = Therapeutic index, ratio of IC50 for Wistar rat hepatocytes to IC50 for Plasmodium falciparum HB3; type: cell-based, Hepatocyte
# Rattus norvegicus [34] = assay: Metabolic stability in Wistar rat assessed as [3-(tert-Butylamino-methyl)-4-chloro-phenyl]-(7-chloro-1-oxy-quinolin-4-yl)-amine level at 54 umol/kg, iv administered as [3H]labeled drug after 5 hrs; type: ADME, organism-based; conditions: in vivo
# Rattus norvegicus [35] = assay: Metabolic stability in Wistar rat assessed as 2-Chloro-5-(7-chloro-quinolin-4-ylamino)-benzoic acid level at 54 umol/kg, iv administered as [3H]labeled drug after 5 hrs; type: ADME, organism-based; conditions: in vivo
# Rattus norvegicus [36] = assay: Metabolic stability in Wistar rat assessed as 2-[2-Chloro-5-(7-chloro-quinolin-4-ylamino)-benzylamino]-2-methyl-propionic acid level at 54 umol/kg, iv administered as [3H]labeled drug after 5 hrs; type: ADME, organism-based; conditions: in vivo
# [37] = target: β-hematin formation (no protein target); assay: Inhibition of beta-hematin formation as molar equivalent relative to hemin causing blockade in BHIA
# Cytochrome P450 2C8 = target: T2, Cytochrome P450 2C8 (Homo sapiens, UniProt P10632); assay: Inhibition of human CYP2C8; type: ADME
# T2 sequence (P10632 whole entry): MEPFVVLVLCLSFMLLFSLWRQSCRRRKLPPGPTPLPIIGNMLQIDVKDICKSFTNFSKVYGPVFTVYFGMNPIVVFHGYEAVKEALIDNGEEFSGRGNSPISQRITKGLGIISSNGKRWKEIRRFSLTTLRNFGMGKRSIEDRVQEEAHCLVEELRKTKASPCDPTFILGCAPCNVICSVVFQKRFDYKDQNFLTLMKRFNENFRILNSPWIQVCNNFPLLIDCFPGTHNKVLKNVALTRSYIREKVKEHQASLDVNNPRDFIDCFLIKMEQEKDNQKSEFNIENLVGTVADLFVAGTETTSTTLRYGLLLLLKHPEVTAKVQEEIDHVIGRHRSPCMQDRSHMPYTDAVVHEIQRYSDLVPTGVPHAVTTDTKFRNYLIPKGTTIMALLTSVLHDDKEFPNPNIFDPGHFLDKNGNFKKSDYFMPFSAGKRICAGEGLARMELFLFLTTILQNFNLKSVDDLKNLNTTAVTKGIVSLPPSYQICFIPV
# Cytochrome P450 2C19 = Cytochrome P450 2C19 (Homo sapiens, UniProt P33261); assay: Inhibition of human CYP2C19; type: ADME
# Cytochrome P450 1A2 = target: T3, Cytochrome P450 1A2 (Homo sapiens, UniProt P05177); assay: Inhibition of human CYP1A2; type: ADME
# T3 sequence (P05177 whole entry): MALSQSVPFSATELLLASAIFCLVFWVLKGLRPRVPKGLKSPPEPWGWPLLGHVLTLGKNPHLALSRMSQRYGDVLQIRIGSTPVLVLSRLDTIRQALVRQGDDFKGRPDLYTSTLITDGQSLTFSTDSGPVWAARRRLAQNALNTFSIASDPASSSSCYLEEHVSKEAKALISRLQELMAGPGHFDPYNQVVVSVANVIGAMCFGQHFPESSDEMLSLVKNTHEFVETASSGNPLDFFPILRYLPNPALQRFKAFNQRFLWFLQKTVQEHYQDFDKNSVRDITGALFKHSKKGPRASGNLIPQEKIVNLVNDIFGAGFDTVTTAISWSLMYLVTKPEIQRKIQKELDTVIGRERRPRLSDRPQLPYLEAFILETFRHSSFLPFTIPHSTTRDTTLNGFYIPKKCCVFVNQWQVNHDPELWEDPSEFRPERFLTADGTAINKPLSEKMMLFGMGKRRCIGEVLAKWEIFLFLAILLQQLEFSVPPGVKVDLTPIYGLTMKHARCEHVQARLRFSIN
# Cytochrome P450 2C9 = Cytochrome P450 2C9 (Homo sapiens, UniProt P11712); assay: Inhibition of human CYP2C9; type: ADME
# Cytochrome P450 2D6 = Cytochrome P450 2D6 (Homo sapiens, UniProt P10635); assay: Inhibition of human CYP2D6; type: ADME
# Plasmodium yoelii [38] = assay: Antimalarial activity as minimal concentration for parasite elimination at day 23 against Plasmodium yoelii 17X intravenously inoculated CD1 mice (Mus musculus) dosed 1 hrs post infection then daily for 4 days
# [39] = Clearance in iv dosed mouse; type: ADME, organism-based; conditions: in vivo
# [40] = Oral bioavailability in rat; type: ADME, organism-based; conditions: in vivo
# Plasmodium yoelii [41] = assay: Antimalarial activity as reduced parasitaemia against Plasmodium yoelii 17X infected CD1 mice (Mus musculus) perorally dosed daily for 4 days; type: functional; conditions: po, 96 h
# [42] = Clearance in iv dosed rat; type: ADME, organism-based; conditions: in vivo
# Cytochrome P450 3A4 [43] = target: T1, Cytochrome P450 3A4; assay: Inhibition of human CYP3A4 using DEF substrate
# [44] = Oral bioavailability in mouse; type: ADME, organism-based; conditions: in vivo
# T1 sequence (P08684 whole entry): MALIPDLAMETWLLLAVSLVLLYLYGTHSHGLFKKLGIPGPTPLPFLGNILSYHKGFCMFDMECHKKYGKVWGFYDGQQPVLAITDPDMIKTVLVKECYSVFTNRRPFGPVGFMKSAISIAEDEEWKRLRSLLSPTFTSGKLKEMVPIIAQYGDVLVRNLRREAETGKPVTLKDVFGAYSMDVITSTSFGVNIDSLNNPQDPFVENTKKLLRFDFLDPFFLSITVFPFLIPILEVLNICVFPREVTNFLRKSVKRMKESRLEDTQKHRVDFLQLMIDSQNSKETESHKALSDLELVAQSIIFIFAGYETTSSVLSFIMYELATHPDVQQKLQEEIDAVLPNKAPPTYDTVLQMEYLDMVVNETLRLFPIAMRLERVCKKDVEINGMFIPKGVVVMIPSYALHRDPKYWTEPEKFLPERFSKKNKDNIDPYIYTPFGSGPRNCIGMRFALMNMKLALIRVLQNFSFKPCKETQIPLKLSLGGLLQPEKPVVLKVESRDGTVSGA
# Cytochrome P450 2C19, sequence (P33261 whole entry): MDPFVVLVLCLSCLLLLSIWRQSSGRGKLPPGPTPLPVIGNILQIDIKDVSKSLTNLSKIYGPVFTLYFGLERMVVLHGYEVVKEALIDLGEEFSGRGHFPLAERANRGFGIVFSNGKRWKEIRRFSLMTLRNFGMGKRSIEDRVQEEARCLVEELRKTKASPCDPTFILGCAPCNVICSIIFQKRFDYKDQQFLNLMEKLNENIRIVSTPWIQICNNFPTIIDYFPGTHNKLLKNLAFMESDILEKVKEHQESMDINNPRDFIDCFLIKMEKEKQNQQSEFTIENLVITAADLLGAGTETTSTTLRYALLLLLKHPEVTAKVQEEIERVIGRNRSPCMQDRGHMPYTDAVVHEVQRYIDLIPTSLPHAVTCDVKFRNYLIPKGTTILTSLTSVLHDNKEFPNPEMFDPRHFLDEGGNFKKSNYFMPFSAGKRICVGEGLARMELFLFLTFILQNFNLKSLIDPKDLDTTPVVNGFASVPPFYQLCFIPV
# Cytochrome P450 2C9, sequence (P11712 whole entry): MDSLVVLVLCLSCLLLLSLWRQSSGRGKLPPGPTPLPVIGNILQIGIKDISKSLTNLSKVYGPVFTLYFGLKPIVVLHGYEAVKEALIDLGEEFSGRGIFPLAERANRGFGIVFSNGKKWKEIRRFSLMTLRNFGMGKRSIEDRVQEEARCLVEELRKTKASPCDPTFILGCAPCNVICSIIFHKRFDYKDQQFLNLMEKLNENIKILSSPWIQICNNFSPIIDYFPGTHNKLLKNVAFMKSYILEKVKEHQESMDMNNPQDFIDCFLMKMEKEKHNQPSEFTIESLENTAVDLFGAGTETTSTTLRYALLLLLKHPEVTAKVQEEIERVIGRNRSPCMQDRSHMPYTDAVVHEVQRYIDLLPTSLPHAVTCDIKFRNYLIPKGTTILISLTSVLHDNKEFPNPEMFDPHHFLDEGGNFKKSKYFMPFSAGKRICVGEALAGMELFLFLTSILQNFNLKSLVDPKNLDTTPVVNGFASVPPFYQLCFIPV
# Cytochrome P450 2D6, sequence (P10635 whole entry): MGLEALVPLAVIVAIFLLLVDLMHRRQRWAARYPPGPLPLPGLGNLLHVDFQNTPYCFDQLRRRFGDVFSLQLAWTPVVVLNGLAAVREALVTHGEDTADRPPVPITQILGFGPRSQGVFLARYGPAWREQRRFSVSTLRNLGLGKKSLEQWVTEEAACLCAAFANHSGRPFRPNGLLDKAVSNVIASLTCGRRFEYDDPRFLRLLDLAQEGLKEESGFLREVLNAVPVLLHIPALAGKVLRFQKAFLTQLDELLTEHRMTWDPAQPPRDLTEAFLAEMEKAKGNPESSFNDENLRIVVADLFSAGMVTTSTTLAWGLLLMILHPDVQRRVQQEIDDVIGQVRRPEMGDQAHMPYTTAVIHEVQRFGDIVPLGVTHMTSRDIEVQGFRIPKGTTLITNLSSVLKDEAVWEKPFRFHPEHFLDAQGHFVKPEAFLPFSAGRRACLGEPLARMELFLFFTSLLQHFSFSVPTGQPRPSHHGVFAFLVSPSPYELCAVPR
Compound,CC50 at 6 h [3],log Ks (Heme [5]),IC50 (Plasmodium falciparum [6]),log Ks (Heme [7]),IC50 (Plasmodium falciparum [8]),logD [9],IC50 (Cytochrome P450 3A4 [11]),IC50 (Plasmodium falciparum [13]),IC50 (Plasmodium falciparum [14]),ED50 (Plasmodium yoelii [15]),IC50 (Cytochrome P450 3A4 [17]; read-out: IC50),IC50 (Plasmodium falciparum [18]),IC50 (Cytochrome P450 2C8),IC50 (Cytochrome P450 2C19),IC50 (Cytochrome P450 1A2),IC50 (Cytochrome P450 2C9),IC50 (Cytochrome P450 2D6),other results
CCN(CC)Cc1cc(Nc2ccnc3cc(Cl)ccc23)ccc1O.Cl,78000 nM,4.4,5.5 nM,6.2,8.9 nM,3.08,28000 nM,18.5 nM,7.2 nM,7.4 mg/kg,> 100000 nM,–,–,–,–,–,–,NOAEL [1]: 100 mg/kg; Activity (Mus musculus [2]): Toxic; NOAEL at 96 h [4]: 100 mg/kg; logP [10]: 4.37; Activity (Mus musculus [12]): > 500 mg/kg; Activity (Mus musculus [16]): Toxic
Fc1ccc(Nc2ccnc3cc(Cl)ccc23)cc1CN1CCCC1,–,–,63.7 nM,–,52.5 nM,–,–,34.7 nM,60.8 nM,–,–,29.7 nM,–,–,–,–,–,IC50 (Plasmodium falciparum [19]): 36.9 nM; IC50 (Plasmodium falciparum [20]): 25 nM; IC50 (Plasmodium falciparum [21]): 46.9 nM; IC50 (Plasmodium falciparum [22]): 45.9 nM
c1ccncc1,–,2.5,–,0.18,–,–,–,–,–,–,–,–,–,–,–,–,–,log Ks (Heme [23]): 2.54; log Ks (Heme [24]): 2.24
CC(C)(C)NCc1cc(Nc2ccnc3cc(Cl)ccc23)ccc1Cl,120000 nM,–,8.1 nM,–,–,3,–,–,4.5 nM,–,–,7.8 nM,–,–,–,–,–,Activity [25]: 14.88%; Activity [26]: 14.9%; ED50 (Plasmodium berghei): 13.4 mg/kg; ED90 (Plasmodium berghei): 27.3 mg/kg; Drug uptake (Liver [27]): 1.87 %ID; logP [28]: 5.59; Drug uptake (Kidney [29]): 5.43 %ID; Drug uptake (Liver [30]): 12.41%; Activity (Rattus norvegicus [31]): 61%; Drug uptake (Lung): 0.25 %ID; Drug uptake (Kidney [32]): 0.31 %ID; selectivity ratio [33]: 11900; Activity (Rattus norvegicus [34]): 4.52%; Activity (Rattus norvegicus [35]): 11.39%; Activity (Rattus norvegicus [36]): 60.76%; IC50 [37]: 1.66 molar ratio
CCNCc1cc(Nc2ccnc3cc(Cl)ccc23)ccc1O [DESETHYL AMODIAQUINE],–,–,–,–,–,–,24000 nM,–,–,–,> 100000 nM,–,20000 nM,54000 nM,28000 nM,58000 nM,6400 nM,–
CCN(CC)Cc1ccc(Nc2ccnc3cc(Cl)ccc23)cc1O [ISOQUINE],–,–,–,–,–,–,–,–,–,1.6 mg/kg,–,7.8 nM,13000 nM,39000 nM,23000 nM,75000 nM,7000 nM,Activity (Plasmodium yoelii [38]): >40 mg/kg; clearance [39]: 219 mL/min/kg; bioavailability [40]: 17%; ED50 (Plasmodium yoelii [41]): 5.2 mg/kg; ED90 (Plasmodium yoelii [41]): 7.6 mg/kg; clearance [42]: 89.2 mL/min/kg; IC50 (Cytochrome P450 3A4 [43]): > 100000 nM; bioavailability [44]: 21%; IC50 (Cytochrome P450 3A4 [17]): Active
